Data on six compounds can be found in patent US20240092800A1, “USP13 INHIBITORS AND METHODS OF USE THEREOF” (GEORGETOWN UNIVERSITY, priority 2021, published 2024).

pIC50: −log10 of the molar value.

What is called pIC50 is −log10 of the IC50, conventionally taken in molar units.

Series [1] relates to human SHSY5Y neuroblastoma cells. Put plainly: Cell viability by MTT and LDH assays. The settings on record: 5 hours, up to 1 mM concentration. On the technique in general: Tetrazolium dyes change colour on reduction, which living cells bring about.
Experimental: Human SHSY-5Y neuroblastoma cells were cultured in Dulbecco's Modified Eagle's Medium (DMEM) (ThermoFisher Scientific; Waltham, MA) with 10% Fetal Bovine Serum (FBS) (ThermoFisher) and 1% Penicillin-Streptomycin (PenStrep, ThermoFisher) and incubated at 37° C. under atmospheric oxygen concentrations (21%) with 5% CO2. SHSY-5Y cells were cultured in DMEM with Ham's F12 (1:1) (ThermoFisher) with 20% FBS, 1% PenStrep. Cells were plated at a density tailored to reach 70-80% confluence at the beginning of every experiment. SH-SY5Y cells were transiently transfected for 24 hours with human wild-type α-synuclein using Fugene HD transfection reagent (Promega; Madison, WI) before fresh culture media and drug were added.
Cell viability was determined via lactate dehydrogenase assay on culture media, (ThermoFisher) and MTT assay on plated cells (ThermoFisher).
A further series has as its system human alpha-synuclein. Put plainly: Alpha-synuclein levels via ELISA in alpha-synuclein-transfected SHSY5Y cells. The settings on record: 5 hours, concentration between 1 and 0.1 nM. Type of series: cell-based. On the procedure:
(§1) Cell lines, transfection, and treatment.
Alpha-Synuclein Enzyme-Linked Immunosorbent Assay (ELISA). ELISAs for total human alpha-synuclein (Millipore; Burlington, MA) were conducted using Milliplexed ELISA. Briefly, Xmap technology uses magnetic microspheres that are internally coded with two fluorescent dyes. Through precise combinations of these two dyes, multiple proteins are simultaneously measured within a sample. Each of these spheres is coated with a specific capture antibody. The capture antibody binds to the detection antibody and a reporter molecule, completing the reaction on the surface of the bead.
(§2) A total of 25 μL soluble protein was incubated overnight at 4° C. with 25 μL of a mixed bead solution. After washing, samples were incubated with 25 μL detection antibody solution for 1.5 hours at room temperature. Streptavidin-phycoerythrin (25 μL) was added to each well containing the 25 μL of detection antibody solution. Samples were then washed and suspended in 100 μL of sheath fluid. Samples were then run on MAGPIX with Xponent software. The median fluorescent intensity (MFI) data were analyzed using a 5-parameter logistic or spline curve-fitting method for calculating analyte concentrations in samples. Specific alpha-synuclein ELISAs were performed on tissue soluble extracts from midbrain lysates in 1XSTEN buffer. The ELISA for USP13 (MyBioSource, Cat # MBS9335287), Human alpha-synuclein (Biolegend, Cat #844101) and specific p-Tau ser396 (Invitrogen, KHB7031) were performed on cell or brain tissue extracts as described above according to manufacturers' protocol.
In general terms: In an ELISA, binding on a coated surface is turned into a signal by an enzyme label.

For a further series, the target named is T1, human USP13 (Homo sapiens, UniProt Q92995).
T1 construct: USP13 activity via ELISA in human SHSY5Y neuroblastoma cells; endogenous in cells; host or cells: human SH-SY5Y neuroblastoma cells (transiently transfected with human wild-type alpha-synuclein, not with USP13)
T1 sequence (Q92995 1-863): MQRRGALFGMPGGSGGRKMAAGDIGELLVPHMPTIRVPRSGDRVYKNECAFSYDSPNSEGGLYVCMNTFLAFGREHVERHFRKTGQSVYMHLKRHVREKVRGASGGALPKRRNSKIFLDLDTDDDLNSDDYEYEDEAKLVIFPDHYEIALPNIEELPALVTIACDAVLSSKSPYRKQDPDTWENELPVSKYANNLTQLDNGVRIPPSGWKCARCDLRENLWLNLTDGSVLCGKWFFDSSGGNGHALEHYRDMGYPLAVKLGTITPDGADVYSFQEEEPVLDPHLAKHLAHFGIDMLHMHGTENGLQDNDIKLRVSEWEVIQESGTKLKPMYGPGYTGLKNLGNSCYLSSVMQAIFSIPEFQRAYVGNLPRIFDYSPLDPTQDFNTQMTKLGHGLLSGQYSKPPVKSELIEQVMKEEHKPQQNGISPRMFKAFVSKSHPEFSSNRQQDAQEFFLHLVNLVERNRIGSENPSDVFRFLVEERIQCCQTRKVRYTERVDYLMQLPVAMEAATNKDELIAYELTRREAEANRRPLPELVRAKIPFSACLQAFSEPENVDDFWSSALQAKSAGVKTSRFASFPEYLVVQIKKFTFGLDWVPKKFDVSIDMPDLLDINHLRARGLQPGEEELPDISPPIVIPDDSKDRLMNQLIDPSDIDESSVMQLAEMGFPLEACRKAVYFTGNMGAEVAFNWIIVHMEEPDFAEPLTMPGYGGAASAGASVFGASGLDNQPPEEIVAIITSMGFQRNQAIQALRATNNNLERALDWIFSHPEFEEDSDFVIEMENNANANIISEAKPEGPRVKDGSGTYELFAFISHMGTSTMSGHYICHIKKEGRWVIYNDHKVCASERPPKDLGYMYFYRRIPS
Put plainly: USP13 activity via ELISA in SHSY5Y cells. The settings on record: for pIC50: SHSY5Y cell line, estimated with GraphPad Prism, read-out: IC50 to inhibit USP13 activity; for USP13 activity via ELISA: SHSY5Y cells, 5 hours, concentration range of 1 nM-1 mM. In kind it is cell-based. As for the experimental part:
as §1, §2
Statistical and Data Analysis. All statistical analyses were performed using GraphPad Prism version 5.0 (GraphPad software, Inc, San Diego, CA, USA). Two-tailed student's t-test was used in comparison of means of two groups. Ordinary one-way analysis of variance (ANOVA) followed by Newman-Keuls or Dunnett comparison post hoc tests were used in comparison of means of multiple groups. Asterisks denote actual p-value significances (*<0.05, **<0.01, ***<0.001 and ****<0.0001), and N is the number of animals or the number of independent experiments (cell culture) per group. Unless otherwise indicated, data are expressed as Mean±SD. IC50 to USP13 levels was also estimated using GraphPad Prism version 5.0 (GraphPad software, Inc, San Diego, CA, USA).

On to `c1ccc(Nc2ccnc3ccsc23)cc1` [BK50118-A, N-Phenylthieno[3,2-b]pyridin-7-amine], for which the “cell death in two viability assays (MTT and LDH)” value (“cell death” for short) in series [1] is given as “do not cause cell death”. In addition, the “level of alpha-synuclein via ELISA” value in the series on human alpha-synuclein is on record as “significantly reduce the level of alpha-synuclein”. For the same compound, on human USP13, the pIC50 was 7.59 and the “USP13 activity via ELISA” value is on record as “significantly reduce the activity of human USP13”.

Turning to `Fc1ccc2nccc(Nc3ccccc3)c2c1` [BK50118-B, 6-Fluoro-N-phenylquinolin-4-amine], the “cell death” value in series [1] is on record as “do not cause cell death”. In the series on human alpha-synuclein, the “level of alpha-synuclein via ELISA” value is listed as “significantly reduce the level of alpha-synuclein”. In addition, at human USP13, the pIC50 is 7.43 and the “USP13 activity via ELISA” value is on record as “significantly reduce the activity of human USP13”.

With `Fc1ccc2nccc(NCc3ccccc3)c2c1` [CL3-499, N-Benzyl-6-fluoroquinolin-4-amine], the “cell death” value in series [1] is recorded as “do not cause cell death”. For the same compound, the “level of alpha-synuclein via ELISA” value in the series on human alpha-synuclein was “significantly reduce the level of alpha-synuclein”. In addition, on human USP13, the pIC50 is 5.92 and the “USP13 activity via ELISA” value was “significantly reduce the activity of human USP13”.

Take `COC(=O)[C@H](Cc1ccccc1)Nc1c([N+](=O)[O-])c(=O)oc2ccccc12` [CL3-512, (S)-Methyl (3-nitro-2-oxo-2H-chromen-4-yl)-phenylalaninate]: in series [1], the “cell death” value is recorded as “do not cause cell death”. For the same compound, the “level of alpha-synuclein via ELISA” value in the series on human alpha-synuclein is reported as “significantly reduce the level of alpha-synuclein”. At human USP13, the pIC50 is 5.97 and the “USP13 activity via ELISA” value was “significantly reduce the activity of human USP13”.

As to `COC(=O)[C@H](Cc1ccc(O)cc1)Nc1c([N+](=O)[O-])c(=O)oc2ccccc12` [CL3-514, (S)-Methyl (3-nitro-2-oxo-2H-chromen-4-yl)-tyrosinate], the “cell death” value in series [1] is “do not cause cell death”. The “level of alpha-synuclein via ELISA” value in the series on human alpha-synuclein is listed as “significantly reduce the level of alpha-synuclein”. At human USP13, the negative-log IC50 (pIC50) is 7.16 and the “USP13 activity via ELISA” value was “significantly reduce the activity of human USP13”.

For `Fc1ccc(CNc2ncnc3ccc(F)cc23)cc1` [Spautin-1, reference compound], the pIC50 at human USP13 is 6.15 to 6.22.
